Test: Solubility assessment in water (aqueous solubility)
Assay type: physicochemical
Details: thermodynamic from solid
Procedure: Solubility assessment: A preweighed amount of powder of a salt was treated with water to target a nominal concentration of 50 mg/mL. If a clear solution was obtained, then the solubility was noted as ≧50 mg/mL. If a suspension was obtained, it was sonicated for 1 min, followed by vortex mixing for 30 sec, and centrifuged for 5 min. The mother liquor was siphoned off and assayed for content against a standard of the free base by HPLC.

SMILES | solubility at 1.5 min (Free base) [µg/mL] | solubility at 1.5 min (HBr salt) [µg/mL] | solubility at 1.5 min (HCl salt) [µg/mL] | solubility at 1.5 min (Mesylate salt) [µg/mL] | solubility at 1.5 min (Phosphate salt) [µg/mL] | solubility at 1.5 min (Sulfate salt) [µg/mL] | solubility at 1.5 min (Tartrate salt) [µg/mL] | solubility at 1.5 min (Camsylate salt) [µg/mL] | solubility at 1.5 min (Tosylate salt) [µg/mL] | solubility at 1.5 min (Citrate salt) [µg/mL]
CN1CCN(S(=O)(=O)c2cc(C#N)ccc2Sc2cc(Cl)cc(Cl)c2)CC1 [Cmpd 1, 4-(3,5-dichlorophenylthio)-3-(4-methylpiperazin-1-ylsulfonyl)benzonitrile] | < 10 | 400 | 1360 | 7260 | 1700 | 790 | 450 | – | – | –
CCN1CCN(S(=O)(=O)c2cc(C#N)ccc2Oc2cc(C)cc(C)c2)CC1 [Cmpd 3, 4-(3,5-dimethylphenoxy)-3-(4-ethylpiperazin-1-ylsulfonyl)benzonitrile] | < 10 | 30 | 330 | 200 | – | – | – | 80 | – | –
CC(C)N1CCN(S(=O)(=O)c2cc(C#N)ccc2Sc2cc(Cl)cc(Cl)c2)CC1 [Cmpd 4, 4-(3,5-dichlorophenylthio)-3-(4-isopropylpiperazin-1-ylsulfonyl)benzonitrile] | < 10 | 200 | 800 | 23000 | – | 1100 | – | 240 | – | –
CCN1CCN(S(=O)(=O)c2cc([N+](=O)[O-])ccc2Oc2cc(Cl)cc(Cl)c2)CC1 [Cmpd 6, 1-(2-(3,5-dichlorophenoxy)-5-nitrophenylsulfonyl)-4-ethylpiperazine] | < 10 | 1000 | 1590 | 10000 | 1660 | 600 | – | 250 | 300 | –
CCN1CCN(S(=O)(=O)c2cc(C#N)ccc2Oc2cc(Cl)cc(Cl)c2)CC1 [Cmpd 2, 4-(3,5-dichlorophenoxy)-3-(4-ethylpiperazin-1-ylsulfonyl)benzonitrile] | < 10 | – | – | 270 | 120 | 230 | – | – | – | –
N#Cc1ccc(Oc2cc(Cl)cc(Cl)c2)c(S(=O)(=O)N2CCC(NC(=O)NCCN3CCOCC3)CC2)c1 [Cmpd 7, 1-(1-(5-cyano-2-(3,5-dichlorophenoxy)phenylsulfonyl)piperidin-4-yl)-3-(2-morpholinoethyl)urea] | < 10 | – | 3670 | 3810 | 2910 | 2350 | – | – | – | 800
CN1CCN(CCNC(=O)NC2CCN(S(=O)(=O)c3cc(C#N)ccc3Oc3cc(Cl)cc(Cl)c3)CC2)CC1 [Cmpd 8, 1-(1-(5-cyano-2-(3,5-dichlorophenoxy)phenylsulfonyl)piperidin-4-yl)-3-(2-(4-methylpiperazin-1-yl)ethyl)urea] | < 10 | – | 1400 | 10900 | 2400 | 580 | – | – | – | –
N#Cc1ccc(Sc2cc(Cl)cc(Cl)c2)c(S(=O)(=O)N2CCN(C3CCCC3)CC2)c1 [Cmpd 5, 3-(4-cyclopentylpiperazin-1-ylsulfonyl)-4-(3,5-dichlorophenylthio)-benzonitrile] | < 10 | – | 110 | 230 | 10000 | 1200 | – | – | – | –
